Laboratory results: PMC4078514, “A Bombesin-Shepherdin Radioconjugate Designed for Combined Extra- and Intracellular Targeting” (Pharmaceuticals, 2014)

Tests used:
[1] = system: GRP-r overexpressing PC-3 cells; test: Internalization assay in PC-3 cells; assay type: cell-based, human; conditions: 0.25 pmol, 1.5-2.0 kBq/well, within 30-60 min, percentage of applied dose normalized to 10^6 cells, n = 2-3 in triplicates, approximate
Method: Cell culturing of human prostate adenocarcinoma (PC-3) cells and in vitro assays (internalization, receptor saturation binding, and externalization) were performed as previously described and are thus described only in brief.
For the determination of cellular uptake, PC-3 cells were incubated with the radiolabeled peptides [^99mTc(CO)3(L)] (L = 14–16; 0.25 pmol; 1.5–2.0 kBq/well) for different time points to allow binding and internalization. Non-specific receptor binding and internalization was determined by incubating the cells with excess of natural bombesin(1–14) as a receptor blocking agent. At each time point, the supernatant was collected, representing the free radiopeptide fraction. The cell surface receptor bound fraction was obtained by treating the cells with an acidic saline glycine buffer (100 mM NaCl, 50 mM glycine, pH 2.8; 2 times for 5 min, on ice). The internalized fraction was determined by cell lysis with 1 M NaOH (10 min). Fractions of free, receptor-bound, and internalized radiopeptide were radiometrically measured in the gamma counter and calculated as percentage of applied dose normalized to 10^6 cells for all time points (n = 2–3 in triplicates, reported by means ± SD). […]

[2] = LogD determination, shake flask method (n-octanol/PBS); assay type: physicochemical; conditions: shake-flask n-octanol/PBS pH 7.4 (1:1, 1 mL, pre-saturated); 10 µL (1 µM) radiolabeled peptide; vortexed 1 min, centrifuged 3,000 rpm 10 min; gamma counter read-out; 2-3 experiments each in quintets, mean ± SD
Method: The hydrophilicity of the radiolabeled peptides 12–16 was evaluated by determination of their partition coefficient between n-octanol and phosphate buffered saline (PBS, pH 7.4) using the shake flask method. In brief, 10 µL (1 µM) of radiolabeled peptides 12–16 were added to a pre-saturated solution of n-octanol and PBS (1:1, 1 mL) and the tubes were vortexed (1 min) and centrifuged (3,000 rpm, 10 min). Aliquots of 100 µL of each phase were radiometrically measured in a gamma counter and the logD values were calculated by the logarithm of the ratio between the radioactive counts in the octanol fraction and the radioactive counts in the PBS fraction. The experiment was performed 2–3 times, each in quintets, and results are reported by mean values ± standard deviation (SD).

Hsp90 = conditions: reported high affinity; read-out: affinity towards Hsp90; cited from earlier work

Compound | applied radioactivity internalized [1] | logD [2] | Kd (Hsp90) [nM]
CCCC[C@H](NC(=O)[C@H](CC(C)C)NC(=O)[C@H](Cc1c[nH]cn1)NC(=O)CNC(=O)[C@@H](NC(=O)[C@H](C)NC(=O)[C@H](Cc1c[nH]c2ccccc12)NC(=O)[C@H](CCC(N)=O)NC(=O)CCNC(=O)CCNC(=O)CCNC(=O)Cn1cc(CN[C@@H](CCCCNC(C)=O)C(=O)O)nn1)C(C)C)C(N)=O [[^99mTc(CO)3(16)], metal not drawn] | 25%–30% | -0.44 ± 0.07 | 
KHSSG [shepherdin(79–83)] |  |  | 80
